Experimental data: the METLIN SMRT retention time set (Domingo-Almenara et al. 2019)

Assay: gradient 5% acetonitrile 3 min, to 50% in 2 min, to 85% in 15 min, held 3 min, 100 µL/min
Settings: column: Zorbax Extend-C18 2.1 x 50 mm; eluents: water / acetonitrile, 0.1% formic acid
In short: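 Pure standards were analyzed in mixtures of ~100 molecules using HPLC coupled to a quadrupole time-of-flight mass spectrometer, in both positive and negative ionization mode. Separation used a Zorbax Extend-C18 column (2.1 × 50 mm, 1.8 μm) at 100 μL/min, with water and acetonitrile each containing 0.1% formic acid. Dead and dwell volumes were 40 μL and 900 μL, and data were collected over 3 months. Retention time was read from computationally picked adduct peaks, each inspected manually.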

Structure (SMILES)	RP-LC retention time [s]
COc1cccc(-c2ccc(=O)n(CCc3nc(-c4cc(OC)cc(OC)c4)no3)n2)c1	955
CN(C(=O)c1ccc(F)cc1C(F)(F)F)C1CCN(c2nnc(-c3ccnn3C)c3ccccc23)CC1	850
CCN1C(=O)c2cccnc2Sc2cc(NC(=O)C3CC3)ccc21	685
CCOc1ccc(C(=O)NC2CCN(c3cc(-c4ccc(Cl)cc4)[nH]n3)C2)cc1 (configuration not stated)	820
CCCNc1nnc(-c2nnc(CC)o2)c2ccccc12	647
O=C(c1ccc(-c2cccnc2)nc1)N1CCN(c2ccccc2F)CC1	688
COc1ccc(C(=O)Nc2c(-c3ccc(F)cc3)nc3cc(C)ccn23)cc1OC	647
COc1ccc(OC)c(NC(=O)c2cnc(-c3ccc(F)cc3)nc2-c2ccncc2)c1	915
CCn1nc(CNC(=O)c2cccs2)c2ccccc21	798
Cc1ccc(-c2nc(NC(=O)CCCOc3ccccc3C)sc2C)cc1	1270
COc1cccc(-c2nnc(SCC(=O)NCc3ccco3)n2-c2ccccc2)c1	739
CCCNC(=O)CCc1c(C)n(CC)c2nc(-c3ccccc3)nn2c1=O	697
COc1ccc2c(c1)c(CN1CC[C@H](CO)[C@H](N(C)C)C1)cn2C(C)C	591
CN(C)c1nccnc1OC1CCN(C(=O)C2CCOCC2)C1 (configuration not stated)	605
O=S(=O)(NCC(O)(c1ccccc1)C(F)(F)F)c1ccc(F)c(Cl)c1 (configuration not stated)	922
COc1ccc(CCC(=O)N2CCN(c3nnc4ccc(C(F)(F)F)cn34)CC2)cc1	709
CC(C)NC(=O)CCn1c(=O)c2ccccc2n2c(=O)n(Cc3ccccc3)nc12	801
Cc1cc(C)n(CCNC(=O)c2c(F)cccc2F)n1	607
CCn1cnc2ccc(-c3noc(-c4cccc(OC)c4)n3)cc21	788
COCCCn1c(=O)c2ccccc2n(Cc2nc(-c3ccc(OC)c(OC)c3)no2)c1=O	876

Structure (SMILES)	RP-LC retention time [s]
CCc1nc(OCC(=O)Nc2ccccc2C(F)(F)F)c2ccccc2n1	846
O=C(Nc1ccc2c(c1)N(C(=O)C1CCCO1)CC2)c1ccc(F)c(F)c1 (configuration not stated)	771
CC1(C(=O)NCc2ccccc2)Cn2cnc(C(=O)N3CCOCC3)c2C(=O)N1C1CC1 (configuration not stated)	605
CCOC(=O)c1nn(-c2ccccc2)c(=O)cc1NCc1ccccn1	649
COc1ccc(NC(=O)CCc2cccc3[nH]ccc23)c(C)c1	805
O=C(NCc1ccc(F)cc1)Nc1cccn2ncnc12	718
Cc1cc(C)cc(NC(=O)NCC(c2cccnc2)c2cn(C)c3ccccc23)c1 (configuration not stated)	711
Cc1nc2cc(-c3noc(-c4cccc(F)c4)n3)ccc2o1	1110
CCOCCCNC(=O)C1=NN(c2ccc(F)cc2)c2ccc(F)cc2S1(=O)=O	885
O=C(COc1ccccc1F)N1CC(c2nc3ccccc3[nH]2)C1	578
COCCNC(=O)COc1cc(C)nc(-c2ccc(Cl)cc2)n1	828
CCCN1C(=O)COc2ccc(-c3noc(-c4cccc5[nH]ccc45)n3)cc21	1070
O=C(Cc1c[nH]c2ncccc12)NC1CCN(Cc2ccccc2)CC1	736
Cc1cccc(Sc2nccnc2SCC(=O)N2CCN(c3ccccn3)CC2)c1	721
c1ccc(-c2noc(NCCc3ccsc3)n2)cc1	969
O=C(NCc1ccc2c(c1)OCO2)C1=CCN(Cc2ccccc2)CC1	607
CCn1ccc2sc(C)c(C(=O)NCc3ccccc3OC)c2c1=O	796
COCCCN(CC(=O)N1CCc2sccc2C1COc1ccc(Cl)cc1)C(=O)NC(C)C (configuration not stated)	996
c1ccc(-c2nc(CC3CCCNC3)no2)cc1 (configuration not stated)	609

Next, values leading:

RP-LC retention time [s]	Structure (SMILES)
653	O=C(NCCCN1CCOCC1)C1CCCN(c2ncc(-c3cccc(F)c3)cn2)C1 (configuration not stated)
732	COc1ccc(NC(=O)N2CCC(n3cnc4cc(F)ccc4c3=O)CC2)c(OC)c1
1020	O=C(Nc1nc2ccc([N+](=O)[O-])cc2s1)c1ccc(S(=O)(=O)N2CCCCC2)cc1
623	O=C(O)c1ccc(-c2ccc(N3CCCCCC3)nc2)cc1
710	Cn1c(N2CCCC(C(=O)NCc3ccc(Cl)cc3)C2)cc(=O)n(C)c1=O (configuration not stated)
816	Cc1cc(-c2nnc(C3CCC3)o2)c(C)n1CC(=O)NCc1ccc2c(c1)OCO2
602	COc1cccc(CN2CCC([C@H]3[C@@H](OC)C(=O)N3C(C)C)CC2)n1
750	O=C([C@@H]1C[C@H](Oc2ccccc2)CN1C(=O)C1CCC1)N1CCCC1
906	Cc1ccc(Nc2nc(C(=O)NC3CCCCC3)nc3ccccc23)cc1
660	CCN(Cc1ccccc1)C(=O)Cn1c(N2CCCC2)nc(C)cc1=O
551	Cn1c(C2CCN(C(=O)Cc3ccc(Cl)cc3)C2)nc2ccncc21 (configuration not stated)
670	CCNC(=O)C1CCCN(c2nc3ncn(CC(=O)Nc4ccc(F)c(F)c4)c(=O)c3s2)C1 (configuration not stated)
1100	Cc1csc(-c2cc(S(=O)(=O)N3CCCCCC3)c(C)n2C)n1
687	COc1ccc(NC(=O)N2C[C@@H](F)C[C@H]2C(=O)N2CCCCC2)c(OC)c1
965	O=C(Cn1cc2c(n1)CCCC2)N1CCC(Cc2ccccc2)CC1
625	O=C(c1ccc(-c2ccsc2)nc1)N1CCN(C2CCCCC2)CC1
740	COc1ccc(NC(=O)NCC23CCCC=C2N(C)C(=O)CC3)cc1 (configuration not stated)
588	CN(C)C(=O)c1ccc2c(c1)nc(CN1CCN(C(=O)c3cccs3)CC1)n2C
1140	Cc1sc(C)c(S(=O)(=O)Nc2ccccc2Cl)c1-c1cc(C(F)(F)F)on1
627	CCn1cc(-c2ccc(OC)cc2)cc1C(=O)N1CCCN(C)CC1
643	O=C(c1c2c(nc3ccccc13)C(=O)N(C1CCCCC1)C2)N1CCN(c2ccccn2)CC1
805	CCn1ccc(C(=O)N2CCCn3nc(-c4ccc(C)cc4)cc3C2)n1
726	CCn1cnc(S(=O)(=O)N2CCCC(C(=O)Nc3ccc(F)cc3)C2)c1 (configuration not stated)
937	O=C(c1csc(-c2ccc(N3CCCC3)nc2)n1)N1CCCCCC1
927	Cc1ccc(NC(=O)Cn2c(=O)n(-c3ccccc3)c(=O)c3c2cc(C)n3C)cc1Cl
949	COc1ccc(NC(=O)Cn2nc(N3CCSCC3)c3ccccc3c2=O)cc1Cl
884	O=C1[C@@H]2[C@H]3CC[C@H](C3)[C@@H]2C(=O)N1C[C@@H]1CCCC[C@H]1CN1CCN(c2nsc3ccccc23)CC1
728	Cc1cc(C)cc(NC(=O)N2CCC(c3cc(N)on3)CC2)c1
